Data published in patent US7235518B2, “Fabric care compositions comprising hueing dye” (The Procter & Gamble Company, priority 2004, dated 2007).

Tests used:
[1] = Chemical stability of brightener in acidic product matrix; assay type: physicochemical; conditions: biodegradable fabric conditioning compositions, pH from about 3 to about 4
[2] = Water solubility of brightener; assay type: physicochemical
Text: Brighteners should have some water solubility for easy incorporation into the fabric conditioning composition. […] Fluorescent whitening agents, generally due to their low water solubility, are difficult to incorporate into liquid fabric conditioning compositions. Often it is advantageous to post-add brighteners to a finished base product. One convenient way to do this is to make a brighteners premix.

**Q.** For `O=S(=O)(O)c1ccccc1C=Cc1ccc(-c2ccc(C=Cc3ccccc3S(=O)(=O)O)cc2)cc1.[Na].[Na]` [Tinopal CBS-X, Disodium 4,4′-bis-(2-sulfostyryl) biphenyl], which “chemical stability in the acidic product matrix” value [1] is on record?
**A.** better than some other brighteners

**Q.** What about the water solubility ([2]; 25 C) of the same molecule?
**A.** 2.5%

**Q.** What about the water solubility ([2]; 25° C.) of the same molecule?
**A.** about 2.5 weight percent
